The supplement of paper PMC8741786
In brackets after ≈: the same amount, converted by molar mass.

Columns and labels:
Experiment in all cases: minimum inhibitory concentration (ETEST)
Neisseria lactamica = settings: population: general population, antibiotic use in previous 6 months: No
Method: (§1)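 Oropharyngeal Neisseria isolates from MSM and employees in Belgium were identified to species by MALDI-TOF MS. MICs of azithromycin, ceftriaxone and ciprofloxacin were determined by ETEST on GC agar after 24 h at 36.5 °C and 5-7% CO2, in mg/L. Values beyond the strip range are reported as >256 (azithromycin) or <0.016 (ceftriaxone); isolates that did not grow are NA.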

Neisseria meningitidis = tested on: Neisseria meningitidis
Method: as §1

Neisseria oralis = settings: population: general population, antibiotic use in previous 6 months: No
Method: as §1

[1] = tested on: Neisseria subflava/flavescens/perflava
Method: as §1

CO/N=C(\C(=O)N[C@@H]1C(=O)N2C(C(=O)O)=C(CSc3nc(=O)c(O)nn3C)CS[C@H]12)c1csc(N)n1 [ceftriaxone]
Settings	minimum inhibitory concentration [mg/L]
Neisseria lactamica, isolate id (sample isolate): Co000761_1	< 0.016
Neisseria lactamica, isolate id (sample isolate): Co000771_1	< 0.016
Neisseria oralis, isolate id (sample isolate): Co000761_7	0.064 (≈ 0.115 µM)
Neisseria oralis, isolate id (sample isolate): Co000763_1	0.032 (≈ 0.0577 µM)
Neisseria oralis, isolate id (sample isolate): Co000766_2	0.023 (≈ 0.0415 µM)
Neisseria oralis, isolate id (sample isolate): Co000770_1	0.064 (≈ 0.115 µM)
Neisseria oralis, isolate id (sample isolate): Co000774_1	0.032 (≈ 0.0577 µM)
Neisseria oralis, isolate id (sample isolate): Co000776_1	0.047 (≈ 0.0847 µM)
Neisseria oralis, isolate id (sample isolate): Co000776_1.1	0.047 (≈ 0.0847 µM)
Neisseria oralis, isolate id (sample isolate): Co000779_2	0.094 (≈ 0.169 µM)
Neisseria oralis, isolate id (sample isolate): Co000790_5	0.064 (≈ 0.115 µM)

Settings	minimum inhibitory concentration [mg/L]
Neisseria meningitidis, isolate id (sample isolate): 19040471_1, population: MSM, antibiotic use in previous 6 months: No	< 0.016
Neisseria meningitidis, isolate id (sample isolate): 19040855_1, population: MSM, antibiotic use in previous 6 months: No	< 0.016
Neisseria meningitidis, isolate id (sample isolate): 19040874_2, population: MSM, antibiotic use in previous 6 months: No	0.016 (≈ 0.0289 µM)
Neisseria meningitidis, isolate id (sample isolate): 19040900_2, population: MSM, antibiotic use in previous 6 months: No	0.023 (≈ 0.0415 µM)
Neisseria meningitidis, isolate id (sample isolate): 19042150_2, population: MSM, antibiotic use in previous 6 months: Yes	< 0.016
Neisseria meningitidis, isolate id (sample isolate): 19042756_3, population: MSM, antibiotic use in previous 6 months: Yes	< 0.016
Neisseria meningitidis, isolate id (sample isolate): 19043201_1, population: MSM, antibiotic use in previous 6 months: No	< 0.016
Neisseria meningitidis, isolate id (sample isolate): 19043201_2, population: MSM, antibiotic use in previous 6 months: No	< 0.016
Neisseria meningitidis, isolate id (sample isolate): 19043274_1, population: MSM, antibiotic use in previous 6 months: Yes	< 0.016
Neisseria meningitidis, isolate id (sample isolate): 19043274_2, population: MSM, antibiotic use in previous 6 months: Yes	0.016 (≈ 0.0289 µM)
Neisseria meningitidis, isolate id (sample isolate): 19051853_1, population: MSM, antibiotic use in previous 6 months: No	< 0.016
Neisseria meningitidis, isolate id (sample isolate): 19052394_3, population: MSM, antibiotic use in previous 6 months: Yes	< 0.016
Neisseria meningitidis, isolate id (sample isolate): 19052434_1, population: MSM, antibiotic use in previous 6 months: Yes	< 0.016
Neisseria meningitidis, isolate id (sample isolate): 19060069_1, population: MSM, antibiotic use in previous 6 months: Yes	0.064 (≈ 0.115 µM)
Neisseria meningitidis, isolate id (sample isolate): 19060069_2, population: MSM, antibiotic use in previous 6 months: Yes	0.064 (≈ 0.115 µM)
Neisseria meningitidis, isolate id (sample isolate): 19060089_2, population: MSM, antibiotic use in previous 6 months: Yes	< 0.016
Neisseria meningitidis, isolate id (sample isolate): 19061666_1, population: MSM, antibiotic use in previous 6 months: Yes	1 (≈ 1.8 µM)
Neisseria meningitidis, isolate id (sample isolate): 19062990_1, population: MSM, antibiotic use in previous 6 months: Yes	< 0.016
Neisseria meningitidis, isolate id (sample isolate): 19070019_2, population: MSM, antibiotic use in previous 6 months: No	0.047 (≈ 0.0847 µM)
Neisseria meningitidis, isolate id (sample isolate): 19070019_4, population: MSM, antibiotic use in previous 6 months: No	0.064 (≈ 0.115 µM)
Neisseria meningitidis, isolate id (sample isolate): 19070047_1, population: MSM, antibiotic use in previous 6 months: No	< 0.016
Neisseria meningitidis, isolate id (sample isolate): 19082621_2, population: MSM, antibiotic use in previous 6 months: No	< 0.016
Neisseria meningitidis, isolate id (sample isolate): 19091461_1, population: MSM, antibiotic use in previous 6 months: No	< 0.016
Neisseria meningitidis, isolate id (sample isolate): 19091461_2, population: MSM, antibiotic use in previous 6 months: No	< 0.016
Neisseria meningitidis, isolate id (sample isolate): 19091973_1, population: MSM, antibiotic use in previous 6 months: No	< 0.016
Neisseria meningitidis, isolate id (sample isolate): 19092429_3, population: MSM, antibiotic use in previous 6 months: No	< 0.016
Neisseria meningitidis, isolate id (sample isolate): 19103457_1, population: MSM, antibiotic use in previous 6 months: No	< 0.016
Neisseria meningitidis, isolate id (sample isolate): 19103457_4, population: MSM, antibiotic use in previous 6 months: No	< 0.016
Neisseria meningitidis, isolate id (sample isolate): 19110394_1, population: MSM, antibiotic use in previous 6 months: No	< 0.016
Neisseria meningitidis, isolate id (sample isolate): 19113049_3, population: MSM, antibiotic use in previous 6 months: No	< 0.016
Neisseria meningitidis, isolate id (sample isolate): 19113049_6, population: MSM, antibiotic use in previous 6 months: No	< 0.016
Neisseria meningitidis, isolate id (sample isolate): Co000765_1, population: general population, antibiotic use in previous 6 months: No	< 0.016
Neisseria meningitidis, isolate id (sample isolate): Co000790_1, population: general population, antibiotic use in previous 6 months: No	< 0.016
Neisseria meningitidis, isolate id (sample isolate): Co000790_3, population: general population, antibiotic use in previous 6 months: No	< 0.016
[1], isolate id (sample isolate): 19041762_1, population: MSM, antibiotic use in previous 6 months: Yes	0.016 (≈ 0.0289 µM)
[1], isolate id (sample isolate): 19041762_1.1, population: MSM, antibiotic use in previous 6 months: Yes	0.023 (≈ 0.0415 µM)
[1], isolate id (sample isolate): 19041780_1, population: MSM, antibiotic use in previous 6 months: Yes	0.064 (≈ 0.115 µM)
[1], isolate id (sample isolate): 19042150_1, population: MSM, antibiotic use in previous 6 months: Yes	0.5 (≈ 0.902 µM)
[1], isolate id (sample isolate): 19042150_3, population: MSM, antibiotic use in previous 6 months: Yes	0.047 (≈ 0.0847 µM)
[1], isolate id (sample isolate): 19042756_1, population: MSM, antibiotic use in previous 6 months: Yes	0.023 (≈ 0.0415 µM)
[1], isolate id (sample isolate): 19042756_2, population: MSM, antibiotic use in previous 6 months: Yes	0.023 (≈ 0.0415 µM)
[1], isolate id (sample isolate): 19043201_1.1, population: MSM, antibiotic use in previous 6 months: No	0.047 (≈ 0.0847 µM)
[1], isolate id (sample isolate): 19043201_2.1, population: MSM, antibiotic use in previous 6 months: No	1 (≈ 1.8 µM)
[1], isolate id (sample isolate): 19043201_3, population: MSM, antibiotic use in previous 6 months: No	0.064 (≈ 0.115 µM)
[1], isolate id (sample isolate): 19043274_3, population: MSM, antibiotic use in previous 6 months: Yes	0.064 (≈ 0.115 µM)
[1], isolate id (sample isolate): 19050474_1, population: MSM, antibiotic use in previous 6 months: No	0.047 (≈ 0.0847 µM)
[1], isolate id (sample isolate): 19050514_1, population: MSM, antibiotic use in previous 6 months: Yes	0.047 (≈ 0.0847 µM)
[1], isolate id (sample isolate): 19050949_1, population: MSM, antibiotic use in previous 6 months: No	0.032 (≈ 0.0577 µM)
[1], isolate id (sample isolate): 19050949_2, population: MSM, antibiotic use in previous 6 months: No	0.023 (≈ 0.0415 µM)
[1], isolate id (sample isolate): 19050949_2.1, population: MSM, antibiotic use in previous 6 months: No	0.016 (≈ 0.0289 µM)
[1], isolate id (sample isolate): 19051904_2, population: MSM, antibiotic use in previous 6 months: Yes	0.064 (≈ 0.115 µM)
[1], isolate id (sample isolate): 19051904_3, population: MSM, antibiotic use in previous 6 months: Yes	0.064 (≈ 0.115 µM)
[1], isolate id (sample isolate): 19052394_1, population: MSM, antibiotic use in previous 6 months: Yes	0.032 (≈ 0.0577 µM)
[1], isolate id (sample isolate): 19052394_1.1, population: MSM, antibiotic use in previous 6 months: Yes	0.023 (≈ 0.0415 µM)
[1], isolate id (sample isolate): 19060089_1, population: MSM, antibiotic use in previous 6 months: Yes	0.047 (≈ 0.0847 µM)
[1], isolate id (sample isolate): 19062994_1, population: MSM, antibiotic use in previous 6 months: Yes	0.047 (≈ 0.0847 µM)
[1], isolate id (sample isolate): Co000761_2, population: general population, antibiotic use in previous 6 months: No	0.023 (≈ 0.0415 µM)
[1], isolate id (sample isolate): Co000761_3, population: general population, antibiotic use in previous 6 months: No	0.032 (≈ 0.0577 µM)
[1], isolate id (sample isolate): Co000761_5, population: general population, antibiotic use in previous 6 months: No	0.016 (≈ 0.0289 µM)
[1], isolate id (sample isolate): Co000761_6, population: general population, antibiotic use in previous 6 months: No	0.016 (≈ 0.0289 µM)
[1], isolate id (sample isolate): Co000762_3, population: general population, antibiotic use in previous 6 months: No	0.094 (≈ 0.169 µM)
